Patent publication US9856225B2, “Substituted phenazines as antimicrobial agents” (University of Florida Research Foundation, Incorporated, priority 2013, dated 2018)
Several values for one entry are separate records, joined by “and”; a condition that tells them apart may be missing. Equal entries are not always repeated. Where two headings read alike, the source gives them in different places.

Key:
Type in all cases: cell-based
[1] = tested on: Staphylococcus aureus (ATCC 25923) biofilm; assay: Biofilm inhibition, crystal violet staining; design: MIC/IC50 Biofilm: unit not given here; details: S. aureus ATCC 25923; for Phenotype: planktonic growth vs biofilm formation; for IC50: Staphylococcus aureus, ATCC25923, single replicate screen, read-out: Biofilm Inhibition IC50; for MIC/IC50 Biofilm: ratio of MIC to IC50 of biofilm inhibition
Protocol: Biofilm Inhibition Protocol for S. aureus (ATCC 25923). A serial two-fold dilution of 2× bromophenazine small molecule concentration was made in 100 μL tryptic soy broth (TSB) medium with 0.5% glucose were delivered into 0.1% gelatin (Millipore) coated 96-well tissue culture plates. […] To each well, 100 μL of TSB with 0.5% glucose containing 2×10^6 CFU/mL Staphylococcus aureus cells, prepared from fresh culture (OD600 of 0.8), was added. The plates were incubated at 37° C. for 24 hours. The wells were gently rinsed by submerging the entire plates in a tub of cold, running tap water. The wells were then fixed with 200 μL methanol for 15 minutes. After the plates were air dried, the biofilms were stained with 100 μL of 1% crystal violet for 10 minutes. The plates were again rinsed with running water. After drying in air, quantitative assessment of biofilm formation was obtained by extracting the crystal violet associated with the remaining biofilm with 100 μL per well of the following bleaching solution (methanol:glacial acetic acid:water (v/v/v)=4:1:5). This bleaching solution dissolved the bound crystal violet and produced a violet-colored solution in each well. The intensity of coloration was determined by measuring the absorbance at 540 nm.

[2] = tested on: Acinetobacter baumannii (ATCC 19606) biofilm; assay: Biofilm inhibition, Mueller-Hinton broth, crystal violet; details: Acinetobacter baumannii, ATCC19606; A. baumannii ATCC 19606; 100 μM; read-out: % Biofilm Inhibition at 100 μM
Protocol: (§1) Biofilm Inhibition Protocol for A. baumannii (ATCC 19606): In a 96-well plate, ten two-fold serial dilutions of each compound tested were made from the highest concentration tested (100 μM) in a final volume of 100 μL in Mueller-Hinton broth (one column served as a blank). Each well was inoculated with ˜7×10^6 colony forming units per milliliter (corresponding to an OD600 of 0.01 prepared directly from an overnight culture). A lid was placed on the 96-well plate which was wrapped in suran wrap, placed in a humidifying chamber and incubated under static conditions at 37° C. for 24 hours. Following incubation, the media and planktonic bacteria were then removed from 96-well plates and the wells were then washed with water. The bacterial biofilms within the microtiter wells were stained with 200 μL of an aqueous 0.1% crystal violet solution that was allowed to stand for 10-20 minutes. The crystal violet stain was then removed, the wells were rinsed with water and dried. The crystal violet stain that remained on the inside of the wells (i.e., stained bacterial biofilm) on the inside of the wells was solubilized by the addition of 200 μL ethanol and absorbance was read at OD540 using a spectrophotometer. NOTE: The concentration range tested for each compound was 0.2-100 μM. Single data points for all compounds and DMSO controls were tested in two replicate rows in 96-well plates and corresponding absorbance readings were averaged for the quantification of planktonic growth and biofilm formation. Reported percent biofilm inhibition was determined by the comparison of compound treated wells (the average of the two replicate wells) versus vehicle control wells without compound following background subtraction (i.e., an empty, untreated well) and reported from 2 to 4 independent overnight cultures. DMSO was serially diluted at the same concentration as test compounds with a top concentration of 1% v/v.
(§2) The bromophenazines were also evaluated against the Gram-negative bacterium Acinetobacter baumannii in order to identify biofilm modulating small molecules against this emerging pathogen. Acinetobacter baumannii is notorious for its ability to persist as bacterial biofilms on hospital surfaces, giving rise to many multidrug-resistant nosocomial infections. Clinical isolates of A. baumannii have been identified that are resistant to every class of antibiotic clinically used. The bromophenazines were evaluated against Acinetobacter baumannii ATCC 19606 in biofilm inhibition assays. Bromophenazines were allowed to incubate in 96-well plates with Acinetobacter baumannii (˜7×10^6 CFUmL^−1 by adjusting an overnight culture to an OD600˜0.01) for 24 hours at 37° C. using Mueller-Hinton broth followed by spectrophometer readings of each plate to evaluate planktonic growth (OD600) and biofilm formation (OD540 after crystal violet stain of biofilms inside microtiter wells). […] This biofilm inhibition with activation of planktonic growth activity was dose-dependent with bromophenazine 17a (see FIG. 20).

[3] = tested on: Staphylococcus aureus (ATCC 25923); assay: MIC broth microdilution (CLSI), Luria Broth; details: Staphylococcus aureus
Protocol: (§3) Antibiotic Susceptibility Tests (MIC Assay Protocol). The minimum inhibitory concentration (MIC) for each compound described herein was determined by the broth microdilution method as recommended by the Clinical and Laboratory Standards Institute (CLSI) (Clinical and Laboratory Standards Institute. 2009. Methods for dilution antimicrobial susceptibility tests for bacteria that grow aerobically; approved standard, eighth edition (M7-A8)). In a 96-well plate, eleven two-fold serial dilutions of each compound were made in a final volume of 100 μL Luria Broth (one column served as a blank; see the MIC assay described herein). Each well was inoculated with 10^5 bacterial cells at the initial time of incubation, prepared from a fresh log phase culture (OD600 of 0.5). […] The concentration range tested for each compound during this study was 0.10 to 100 μM. DMSO served as the vehicle and negative control in each microdilution MIC assay. DMSO was serially diluted at the same concentration as the compounds with a top concentration of 1% v/v. Bacterial strains used: Staphylococcus aureus (ATCC 25923), Staphylococcus epidermidis (ATCC 12228) and Pseudomonas aeruginosa (PAO1). Kanamycin was used as a positive control against Staphylococcus aureus and Staphylococcus epidermidis.

[4] = tested on: Staphylococcus epidermidis (ATCC 12228); assay: MIC broth microdilution (CLSI), Luria Broth
Protocol: as §3

[5] = tested on: Acinetobacter baumannii (ATCC 19606); assay: Planktonic growth (OD600) in biofilm inhibition assay; details: for inhibition of growth at 100 µM: Acinetobacter baumannii, ATCC19606, 24 h, A. baumannii ATCC 19606, * = no growth inhibition at 200 μM, read-out: % Growth Inhibition at 100 μM
Protocol: as §1, with “Each” for “Biofilm Inhibition Protocol for A. baumannii (ATCC 19606): In a 96-well plate, ten two-fold serial dilutions of each compound tested were made from the highest concentration tested (100 μM) in a final volume of 100 μL in Mueller-Hinton broth (one column served as a blank). Each”, “NOTE: The concentration range tested for each compound was 0.2-100 μM.” left out
as §2

[6] = tested on: Pseudomonas aeruginosa (PAO1); assay: MIC broth microdilution (CLSI), Luria Broth
Protocol: as §3

[7] = ATCC25923, Table 1, ATCC 25923, range tested 0.10 to 100 μM, read-out: Staphylococcus aureus MIC
[8] = ATCC25923, Table 1, ATCC 25923, read-out: Staphylococcus aureus MIC
[9] = ATCC25923, Table 2, S. aureus ATCC 25923, Luria Broth, read-out: MIC
[10] = ATCC12228, Table 1, ATCC 12228, read-out: Staphylococcus epidermidis MIC
[11] = Table 1, PAO1, read-out: Pseudomonas aeruginosa MIC

MIC [3, 7]	MIC [3, 8]	MIC [4, 10]	MIC [6, 11]	Compound	also measured
50 µM	13 µg/mL	50 µM and 13 µg/mL	> 100 µM	O=C(O)c1cccc2nc3cccc(Cl)c3nc12 [Compound 10, 9-Chlorophenazine-1-carboxylic acid]	–
> 100 µM	> 25.3 µg/mL	> 100 µM and > 25.3 µg/mL	> 100 µM	CCc1ccc2nc3c(C(=O)O)cccc3nc2c1 [Compound 13, 7-Ethylphenazine-1-carboxylic acid]	–
100 µM	30.3 µg/mL	100 µM and 30.3 µg/mL	> 100 µM	O=C(O)c1cccc2nc3cc(Br)ccc3nc12 [Compound 9, 7-Bromophenazine-1-carboxylic acid]	–
> 100 µM	> 43.2 µg/mL	–	> 100 µM	Nc1c(Br)cc(Br)c2nc3cc(Br)ccc3nc12 [Compound 16, 2,4,7-Tribromophenazin-1-amine]	–
> 100 µM	> 30.2 µg/mL	–	> 100 µM	NC(=O)c1cccc2nc3cc(Br)ccc3nc12 [Compound 15, 7-Bromophenazine-1-carboxamide]	–
> 100 µM	> 27.5 µg/mL	–	> 100 µM	Oc1ccc(Br)c2nc3ccccc3nc12 [Compound 20, 4-Bromophenazin-1-ol]	–
> 100 µM	> 27.4 µg/mL	–	> 100 µM	Nc1cccc2nc3cc(Br)ccc3nc12 [Compound 14, 7-Bromophenazin-1-amine]	–

Second part, the compound before the results:

Compound	MIC [3, 7]	MIC [3, 8]	MIC [4, 10]	MIC [6, 11]	also measured
CC(C)C(=O)Oc1c(Br)cc(Br)c2nc3ccccc3nc12 [Compound 22, 2,4-Dibromophenazin-1-yl isobutyrate]	1.56 µM	0.66 µg/mL	1.56 µM and 0.66 µg/mL	–	Phenotype [1]: antibacterial; IC50 [1]: 990 nM; MIC/IC50 Biofilm [1]: 1.6; inhibition at 100 µM [2]: 26 ± 12%; MIC [3, 9]: 1.56 µM; inhibition of growth at 100 µM ([5]; 100 μM): -13 ± 5%
NC(=O)c1cccc2nc3ccccc3nc12 [Compound 4, Phenazine-1-carboxamide, reference compound]	> 100 µM	> 22.4 µg/mL	> 100 µM and > 22.4 µg/mL	> 100 µM	–
O=C(O)c1cccc2nc3ccccc3nc12 [Compound 3, Phenazine-1-carboxylic acid, reference compound]	> 100 µM	> 22.5 µg/mL	> 100 µM and > 22.5 µg/mL	> 100 µM	–
Oc1cccc2nc3ccccc3nc12 [Compound 2, 1-Hydroxyphenazine, reference compound]	–	–	–	–	MIC ([3]; ATCC25923, read-out: Staphylococcus aureus MIC): > 100 µM and > 19.7 µg/mL; MIC ([4]; ATCC12228, read-out: Staphylococcus epidermidis MIC): > 100 µM and > 19.7 µg/mL; MIC ([6]; PAO1, read-out: Pseudomonas aeruginosa MIC): > 100 µM
O=C(O)c1cccc2c1nc1ccccc1[n+]2[O-] [Compound 7, 1-Carboxyphenazine 5-oxide]	> 100 µM	> 24.1 µg/mL	> 100 µM and > 24.1 µg/mL	> 100 µM	–
Nc1c(Br)cc(Br)c2nc3ccccc3nc12 [Compound 17, 2,4-Dibromophenazin-1-amine]	> 100 µM	> 35.4 µg/mL	–	> 100 µM	–
Oc1c(Br)ccc2nc3ccccc3nc12 [Compound 5, 2-Bromophenazin-1-ol, reference compound]	6.25 µM	1.72 µg/mL	6.25 µM and 1.72 µg/mL	> 100 µM	–
COc1ccc(Br)c2nc3ccccc3nc12 [Compound 19, 1-Bromo-4-methoxyphenazine]	> 100 µM	> 28.9 µg/mL	–	> 100 µM	–
O=C(Oc1c(Br)cc(Br)c2nc3ccccc3nc12)c1cccc(Br)c1 [Compound 25, 2,4-Dibromophenazin-1-yl 3-bromobenzoate]	3.13 µM	1.68 µg/mL	3.13 µM and 1.68 µg/mL	–	Phenotype [1]: antibacterial; IC50 [1]: 930 nM; MIC/IC50 Biofilm [1]: 3.4; inhibition at 100 µM [2]: 49 ± 6%; MIC [3, 9]: 3.13 µM; increase in planktonic growth ([5]; 100 μM, OD600): ~15%; planktonic growth inhibition at 200 μM ([5]; 200 μM): did not inhibit planktonic growth; inhibition of growth at 100 µM ([5]; 100 μM): -18 ± 4%
